According to patent publication US5008265A, “2-amino-7-(alicyclomethyl)-3H,5H,-pyrrolo[3,2-d]pyrimidin-4-ones and pharmaceutical uses and compositions containing the same” (BioCryst, Inc., priority 1989, dated 1991):
Like-named read-outs stand apart in the source and are kept apart here.

How the values were obtained:
plasma inosine = plasma inosine in Lewis rats after intraperitoneal injection (HPLC); format: in vivo; conditions: 30 mg twice per day, aqueous carrier with ten percent DMSO, vs vehicle controls
Protocol: A pharmaceutical composition for intraperitoneal injection is prepared for testing the compound (IA). An intraperitoneal injection solution containing the compound (IA) is dissolved in an aqueous carrier that contains ten percent DMSO.
The compound (IA) is intraperitoneally injected into Lewis Rats via the test composition of Example 21 to provide 30 mg of the compound (IA), with an injection given twice per day. Controls are used, which receive only the vehicle. At specific times after administration, the animals are sacrificed and plasma samples are prepared. The plasma is extracted with cold 0.5 N HClO4 and neutralized with solid NH4 HCO3. After removal of perchlorate salts, the extract is subjected to HPLC on a reversed phase column (Spherisorb ODSI).
Compounds prepared as in Examples 10-20 are each made into a pharmaceutical formulation in accordance with the preparation of Example 21 and the resultant injectable solutions are tested in accordance with the procedure of Example 22.
A pharmaceutical composition for intraperitoneal injection is prepared for testing the compound (IC). An intraperitoneal injection solution is prepared containing the compound (IC) is dissolved in an aqueous carrier that contains ten percent DMSO. […]

[1] = target: T1, purine nucleoside phosphorylase (PNP) (Bos taurus, UniProt P55859); assay: biochemical; format: biochemical, calf
T1 construct: using calf spleen as the enzyme source; from tissue; host or cells: calf spleen
T1 sequence (P55859 1-289): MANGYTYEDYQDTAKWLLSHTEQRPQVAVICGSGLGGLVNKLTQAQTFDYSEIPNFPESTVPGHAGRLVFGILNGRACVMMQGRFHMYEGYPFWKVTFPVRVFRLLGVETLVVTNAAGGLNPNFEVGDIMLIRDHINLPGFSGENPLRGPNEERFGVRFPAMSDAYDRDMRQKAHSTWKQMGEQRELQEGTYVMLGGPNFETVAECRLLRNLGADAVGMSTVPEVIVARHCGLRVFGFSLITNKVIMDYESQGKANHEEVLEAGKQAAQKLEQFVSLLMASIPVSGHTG
Protocol: The compound of Example 8 is tested for enzyme inhibition activity.

CCRF-CEM cells = assay: potentiation of the toxicity of 2'-deoxyguanosine (d-Guo) in CCRF-CEM cells; format: cell-based; conditions: read-out: IC50, concentration of the compound required to reduce the increase in cell number between 0 and 72 hours to 50% of that of control cultures, with d-Guo at 5.62 μM, RPMI-1640 medium
Protocol: CCRF-CEM cells are grown in RPMI-1640 medium. To a suspension cultures of these cells, d-Guo at a fixed concentration (5.62 μM) and the compound at varied concentrations are added and the number of cells are determined in a Coulter counter 24, 48, and 72 hours thereafter.

[2] = 1 mM phosphate, calf spleen enzyme, read-out: PNP activity (IC50) at 1 mM phosphate
[3] = read-out: PNP activity (IC50) at 50 mM phosphate, 50 mM phosphate, calf spleen enzyme

| SMILES | increase in plasma inosine (plasma inosine) | IC50 [1, 2] [nM] | IC50 [1, 3] [nM] | other results |
| --- | --- | --- | --- | --- |
| Nc1nc2c(CC3C4CC5CC(C4)CC3C5)c[nH]c2c(=O)[nH]1 (stereo not shown) [Example 8, 2-amino-7-(2-adamantylmethyl)-3H,5H-pyrrolo[3,2-d]pyrimidin-4-one] | significant increase in plasma inosine | 90 | 2500 |  |
| Nc1nc2c(CC3CCCC3)c[nH]c2c(=O)[nH]1 [Example 41, 2-amino-7-(cyclopentylmethyl)-3H,5H-pyrrolo[3,2-d]-pyrimidin-4-one] | significant increase in plasma inosine | 29 | 1800 |  |
| Nc1nc2c(CC3CCCCC3)c[nH]c2c(=O)[nH]1 [Example 56, 2-amino-7-(cyclohexylmethyl) -3H,5H-pyrrolo[3,2-d]-pyrimidin-4-one] |  |  |  | IC50 (CCRF-CEM cells): 2000 nM |
| CC1CCCC(Cc2c[nH]c3c(=O)[nH]c(N)nc23)C1 (stereo not shown) [Example 59, 2-amino-7-(3-methylcyclohexylmethyl)-3H,5H-pyrrolo[3,2-d]pyrimidin-4-one] |  |  |  | IC50 ([1]; read-out: PNP activity (IC50) at 1 mM phosphate): 25 nM |
| Nc1nc2c(CC3CCCCCC3)c[nH]c2c(=O)[nH]1 [Example 70, 2-amino-7-(cycloheptylmethyl)-3H,5H-pyrrolo[3,2-d]pyrimidin-4-one] |  | 30 |  | IC50 ([1]; PNP activity (IC50) at 50 mM phosphate, 50 mM phosphate, calf spleen enzyme): 840 nM |
